Experimental data published in patent US7833513B2, “Treatment of Alzheimer's Disease” (Rhode Island Hospital, priority 2004, dated 2010).

Tests used:
Format in all cases: in vivo, Long Evans rat
learning and memory = experiment: Morris Water Maze learning and memory test; conditions: for behavior, learning and memory during the training period: 4-week old rats; for mean latency period to arrive at the hidden platform relative to control: Trial Day 4 / final day of testing
Description: On the same day, sub-sets of the ic-STZ group were given a single intra-peritoneal injection of vehicle (saline), or a PPAR-α (GW7647; 25 ug/Kg), PPAR-δ (L-165,041; 2 μg/Kg), or PPAR-γ (F-L-Leu; 20 μg/Kg) activator (CalBiochem, Carlsbad, Calif.). […] In addition, at 4 weeks of age, memory and learning were evaluated using a Morris Water Maze (R. W. Hickey, M. Akino, S. Strausbaugh, G. M. De Courten-Myers. Use of the Morris water maze and acoustic startle chamber to evaluate neurologic injury after asphyxial arrest in rats. Pediatr Res 39(1) (1996), 77-84). The procedures and use of rats in these experiments were approved by the Lifespan-Rhode Island Hospital IACUC committee.
Morris Water Maze Behavioral Tests: A standard Morris Water Maze was used to measure learning (R. W. Hickey, M. Akino, S. Strausbaugh, G. M. De Courten-Myers. Use of the Morris water maze and acoustic startle chamber to evaluate neurologic injury after asphyxial arrest in rats. Pediatr Res 39(1) (1996), 77-84). On the first day of testing, the rats were oriented to the water maze and educated about the location of the platform. On the 3 subsequent days of testing, the platform was submerged just below the surface, and the rats were tested for their learning and memory of the platform location by measuring the latency period required to reach and recognize the platform. The rats were allowed 120 seconds to locate the platform, after which they were guided to it. After landing on the platform, the rats were allowed to orient themselves for 15 seconds prior to being rescued. The rats were tested three times each day, with 30 min. intervals between trials. The rats were placed in the same quadrant of the water maze for every trial, except for trials 2 and 3 on the final day testing, when the start locations were randomized to test mastery of platform memory.

[1] = tested on: GFAP, GSK-3β, phospho-GSK-3β, ubiquitin, tau, phospho-tau, β-actin; experiment: ic-STZ model: Western blot analysis of temporal lobe tissue; conditions: 40 mg/kg ic-STZ, Mean±S.E.M.
Description: Western blot analysis was used to assess the levels of Akt, phospho-Akt, GSK-3β, phospho-GSK-3β, Tau, and β-actin. […] Protein concentration was determined using the bicinchoninic acid (BCA) assay (Pierce, Rockford, Ill.). Samples containing 100 μg of protein were fractionated by sodium dodecyl sulfate, polyacrylamide gel electrophoresis (SDS-PAGE). (Ausubel et al., Current Protocols in Molecular Biology (2000)). Proteins were transferred to Immobilon-P (Millipore Corporation, Bedford, Mass.) PVDF membranes and non-specific binding sites were adsorbed with SuperBlock-TBS (Pierce, Rockford, Ill.). Membranes were incubated over night at 4° C. with primary antibody (0.5-1 μg/ml) diluted in Tris-buffered saline (TBS; 50 mM Tris, 150 mM NaCl, pH 7.4) containing 1% bovine serum albumin and 0.05% Tween-20 (TBST-BSA). Immunoreactivity was detected using horseradish peroxidase (HRP) conjugated IgG (Pierce, Rockford, Ill.), Western Lightning chemiluminescence reagents (Perkin Elmer Life Sciences Inc., Boston, Mass.), and film autoradiography. All incubations were performed using gentle platform agitation. Immunoreactivity was quantified using the Kodak Digital Science Imaging Station (NEN Life Sciences, Boston, Mass.).
Western blot analysis was used to assess the levels of tau, phospho-tau, ubiquitin, GSK-3β, phospho-GSK-3β, GFAP, and β-actin as described above.
Studies were performed to determine if ic-STZ-induced neurodegeneration was associated with increased activation of GSK-3β (reduced phospho-GSK-3β/total GSK-3β ratio) and increased levels of phospho-tau. Since characteristic features of AD-type neurodegeneration also include increased ubiquitination of proteins, including tau (Godbolt et al., Arch. Neurol. 62:1097 (2005); Kosik et al., Biochim. Biophys. Acta 1739:298 (2005); de Vrij et al., Prog. Neurobiol. 74:249 (2004)) and gliosis associated with cell loss, Western blot analysis was used to measure ubiquitin and GFAP immunoreactivity as well. β-actin expression was measured as a […].
Values correspond to arbitrary densitometry units (Mean±S.E.M.). Results were analyzed using Student t-tests.

IGF-II receptor = conditions: temporal lobe membrane extracts
Description: Membrane proteins were extracted from fresh frozen temporal lobe tissue (˜100 mg) by Polytron (Glen Mils Inc., Clifton, N.J.) homogenization in 5 volumes of NP-40 lysis buffer (50 mM Tris-HCl, pH 7.5, 150 mM NaCl, 1 mM EDTA, 2 mM EGTA, 1% NP-40) containing protease (1 mM PMSF, 0.1 mM TPCK, 1 μg/ml aprotinin, 1 μg/ml pepstatin A, 0.5 μg/ml leupeptin, 1 mM NaF, 1 mM Na4P2O7) and phosphatase (2 mM Na3VO4) inhibitors. The supernatant fractions obtained after centrifuging the samples at 10,000×g for 15 minutes at 4° C. were used in the binding assays. […] Protein concentrations were measured with the bicinchoninic acid (BCA) assay (Pierce, Rockford, Ill.).
Competitive equilibrium binding assays were used to assess growth factor binding in relation to ic-STZ-treatment. […]
All reactions were performed in 1.5 ml Eppendorff tubes, and the incubations were performed at 4° C. for 16 hours with gentle platform agitation. […] Each sample was counted for 1 minute in an LKB CompuGamma CS Gamma counter. Specific binding was calculated by subtracting fmols of non-specific binding, i.e. amount bound in the presence of excess cold ligand, from total fmols bound (absence of unlabeled competitive ligand). The binding assay results were analyzed using the GraphPad Prism 4 software (GraphPad Software, Inc., San Diego, Calif.).

CC(C)(Sc1ccc(CCN(CCCCC2CCCCC2)C(=O)NC2CCCCC2)cc1)C(=O)O [PPAR-α agonist, GW7647]
behavior, learning and memory during the training period (learning and memory): delayed learning and impaired memory | mean latency period to arrive at the hidden platform relative to control (learning and memory): significantly higher

CC(C)C[C@H](NC(=O)OCC1c2ccccc2-c2ccccc21)C(=O)O [PPAR-γ agonist, F-L-Leu]
behavior, learning and memory during the training period (learning and memory): delayed learning and impaired memory | mean latency period to arrive at the hidden platform relative to control (learning and memory): significantly higher

CCCc1c(OCCCOc2ccc(OCC(=O)O)cc2)ccc(C(C)=O)c1O [PPAR-δ agonist, L-165,041]
behavior, learning and memory during the training period (learning and memory): no detectable abnormalities in behavior, learning, or memory | mean latency period to arrive at the hidden platform relative to control (learning and memory): no significant difference

CN(N=O)C(=O)NC1C(O)OC(CO)C(O)C1O (centres unmarked) [STZ]
GFAP protein (Western blot) [1]: 983591 ± 113549 arbitrary densitometry units | GSK-3β protein (Western blot) [1]: 149945 ± 15588 arbitrary densitometry units | Tau protein (Western blot) [1]: 686442 ± 65138 arbitrary densitometry units | Ubiquitin protein (Western blot) [1]: 1390824 ± 133586 arbitrary densitometry units | p-GSK-3β protein (Western blot) [1]: 2811 ± 296 arbitrary densitometry units | p-Tau protein (Western blot) [1]: 3378 ± 920 arbitrary densitometry units | β-Actin protein (Western blot, negative control) [1]: 196548 ± 14314 arbitrary densitometry units | mean latency period vs control (learning and memory; first 3 days of testing): approximately twice as long as control | mean latency vs control (learning and memory; fourth day): no significant differences | learning and memory in Morris Water Maze (learning and memory; rats surviving 4 weeks or longer, preliminary studies): striking impairments in learning and memory | IGF-II binding vs control (IGF-II receptor): significantly reduced
